Results reported in ChEMBL document CHEMBL1127094, “Competitive NMDA receptor antagonists; (R)-4-Oxo-5-phosphononorvaline structure-activity relationships” (Bioorg Med Chem Lett, 1993).

target: Glutamate NMDA receptor; assay: Tested for the binding potency against NMDA site of the glutamate receptor complex using rat brain cortical membranes in a competitive binding assay with [3H]CPP as radioligand; type: cell membranes, Membrane

Row | Compound | IC50 [nM]
1 | N[C@H](C/C(CP(=O)(O)O)=N/OCc1ccccc1)C(=O)O | 500
2 | CC(C(=O)CP(=O)(O)O)C(N)C(=O)O (centres undefined) | 7000
3 | N[C@H](CC(=O)CP(=O)(O)O)C(=O)O | 110
4 | CC(N)(CC(=O)CP(=O)(O)O)C(=O)O (centres undefined) | 20000
5 | N[C@H](C/C(CP(=O)(O)O)=N/O)C(=O)O | 200
6 | CC(C(=O)C[C@@H](N)C(=O)O)P(=O)(O)O (some centres undefined) | 1800
7 | COP(=O)(O)CC(=O)CC(N)C(=O)O (centres undefined) | 5000
8 | COC(=O)[C@H](N)CC(=O)CP(=O)(O)O | 1700
9 | CO/N=C(/C[C@@H](N)C(=O)O)CP(=O)(O)O | 600
